Reference: ChEMBL document CHEMBL3046407, “Toxicity of monoterpenes against larvae and adults of Colorado potato beetle, Leptinotarsa decemlineata Say (Coleoptera: Chrysomelidae)” (2007)

Assays:
Type in all cases: functional
[1] = test system: Leptinotarsa decemlineata; assay: Insecticidal activity against second-instar larval stage of Leptinotarsa decemlineata infested potato leaves assessed as mortality at 20 ul after 96 hr (reference value: 3.3 +/- 3.3%)
[2] = test system: Leptinotarsa decemlineata; assay: Insecticidal activity against second-instar larval stage of Leptinotarsa decemlineata infested potato leaves assessed as mortality at 20 ul after 48 hr (reference value: 3.3 +/- 3.3%)
[3] = test system: Leptinotarsa decemlineata; assay: Insecticidal activity against second-instar larval stage of Leptinotarsa decemlineata infested potato leaves assessed as mortality at 20 ul after 24 hr (reference value: 3.3 +/- 3.3%)
[4] = test system: Leptinotarsa decemlineata; assay: Insecticidal activity against second-instar larval stage of Leptinotarsa decemlineata infested potato leaves assessed as mortality at 10 ul after 12 hr relative to control
Sitophilus granarius = assay: Insecticidal activity against Sitophilus granarius (granary weevil) assessed as mortality
[5] = test system: Leptinotarsa decemlineata; assay: Insecticidal activity against adult Leptinotarsa decemlineata infested potato leaves assessed as mortality at 20 ul after 96 hr relative to control
[6] = test system: Leptinotarsa decemlineata; assay: Insecticidal activity against adult Leptinotarsa decemlineata infested potato leaves assessed as mortality at 20 ul after 48 hr relative to control
[7] = test system: Leptinotarsa decemlineata; assay: Insecticidal activity against adult Leptinotarsa decemlineata infested potato leaves assessed as mortality at 20 ul after 24 hr relative to control
[8] = test system: Leptinotarsa decemlineata; assay: Insecticidal activity against adult Leptinotarsa decemlineata infested potato leaves assessed as mortality at 20 ul after 12 hr relative to control
[9] = test system: Leptinotarsa decemlineata; assay: Insecticidal activity against adult Leptinotarsa decemlineata infested potato leaves assessed as mortality at 10 ul after 96 hr relative to control
[10] = test system: Leptinotarsa decemlineata; assay: Insecticidal activity against adult Leptinotarsa decemlineata infested potato leaves assessed as mortality at 10 ul after 48 hr relative to control
[11] = test system: Leptinotarsa decemlineata; assay: Insecticidal activity against adult Leptinotarsa decemlineata infested potato leaves assessed as mortality at 10 ul after 24 hr relative to control
[12] = test system: Leptinotarsa decemlineata; assay: Insecticidal activity against adult Leptinotarsa decemlineata infested potato leaves assessed as mortality at 10 ul after 12 hr relative to control
[13] = test system: Leptinotarsa decemlineata; assay: Insecticidal activity against second-instar larval stage of Leptinotarsa decemlineata infested potato leaves assessed as mortality at 20 ul after 12 hr relative to control
[14] = test system: Leptinotarsa decemlineata; assay: Insecticidal activity against second-instar larval stage of Leptinotarsa decemlineata infested potato leaves assessed as mortality at 10 ul after 96 hr (reference value: 3.3 +/- 3.3%)
[15] = test system: Leptinotarsa decemlineata; assay: Insecticidal activity against second-instar larval stage of Leptinotarsa decemlineata infested potato leaves assessed as mortality at 10 ul after 48 hr (reference value: 3.3 +/- 3.3%)
[16] = test system: Leptinotarsa decemlineata; assay: Insecticidal activity against second-instar larval stage of Leptinotarsa decemlineata infested potato leaves assessed as mortality at 10 ul after 24 hr (reference value: 3.3 +/- 3.3%)
[17] = test system: Leptinotarsa decemlineata; assay: Insecticidal activity against first-instar larval stage of Leptinotarsa decemlineata infested potato leaves assessed as mortality at 20 ul after 96 hr relative to control
[18] = test system: Leptinotarsa decemlineata; assay: Insecticidal activity against first-instar larval stage of Leptinotarsa decemlineata infested potato leaves assessed as mortality at 20 ul after 48 hr relative to control
[19] = test system: Leptinotarsa decemlineata; assay: Insecticidal activity against first-instar larval stage of Leptinotarsa decemlineata infested potato leaves assessed as mortality at 20 ul after 24 hr relative to control
[20] = test system: Leptinotarsa decemlineata; assay: Insecticidal activity against first-instar larval stage of Leptinotarsa decemlineata infested potato leaves assessed as mortality at 20 ul after 12 hr relative to control
[21] = test system: Leptinotarsa decemlineata; assay: Insecticidal activity against first-instar larval stage of Leptinotarsa decemlineata infested potato leaves assessed as mortality at 10 ul after 96 hr relative to control
[22] = test system: Leptinotarsa decemlineata; assay: Insecticidal activity against first-instar larval stage of Leptinotarsa decemlineata infested potato leaves assessed as mortality at 10 ul after 48 hr relative to control
[23] = test system: Leptinotarsa decemlineata; assay: Insecticidal activity against first-instar larval stage of Leptinotarsa decemlineata infested potato leaves assessed as mortality at 10 ul after 12 hr relative to control
[24] = test system: Leptinotarsa decemlineata; assay: Insecticidal activity against first-instar larval stage of Leptinotarsa decemlineata infested potato leaves assessed as mortality at 10 ul after 24 hr relative to control
[25] = test system: Leptinotarsa decemlineata; assay: Insecticidal activity against third-instar larval stage of Leptinotarsa decemlineata infested potato leaves assessed as mortality at 20 ul after 96 hr (reference value: 3.3 +/- 3.3%)
[26] = test system: Leptinotarsa decemlineata; assay: Insecticidal activity against third-instar larval stage of Leptinotarsa decemlineata infested potato leaves assessed as mortality at 20 ul after 48 hr (reference value: 3.3 +/- 3.3%)
[27] = test system: Leptinotarsa decemlineata; assay: Insecticidal activity against third-instar larval stage of Leptinotarsa decemlineata infested potato leaves assessed as mortality at 20 ul after 24 hr relative to control
[28] = test system: Leptinotarsa decemlineata; assay: Insecticidal activity against third-instar larval stage of Leptinotarsa decemlineata infested potato leaves assessed as mortality at 20 ul after 12 hr relative to control
[29] = test system: Leptinotarsa decemlineata; assay: Insecticidal activity against third-instar larval stage of Leptinotarsa decemlineata infested potato leaves assessed as mortality at 10 ul after 96 hr (reference value: 3.3 +/- 3.3%)
[30] = test system: Leptinotarsa decemlineata; assay: Insecticidal activity against third-instar larval stage of Leptinotarsa decemlineata infested potato leaves assessed as mortality at 10 ul after 48 hr (reference value: 3.3 +/- 3.3%)
[31] = test system: Leptinotarsa decemlineata; assay: Insecticidal activity against third-instar larval stage of Leptinotarsa decemlineata infested potato leaves assessed as mortality at 10 ul after 24 hr relative to control
[32] = test system: Leptinotarsa decemlineata; assay: Insecticidal activity against third-instar larval stage of Leptinotarsa decemlineata infested potato leaves assessed as mortality at 10 ul after 12 hr relative to control

Structure (SMILES)	mortality [1] [%]	mortality [2] [%]	mortality [3] [%]	mortality [4] [%]	mortality (Sitophilus granarius) [%]	mortality [5] [%]	mortality [6] [%]	mortality [7] [%]	mortality [8] [%]	mortality [9] [%]	mortality [10] [%]	mortality [11] [%]	mortality [12] [%]	mortality [13] [%]	mortality [14] [%]	mortality [15] [%]	mortality [16] [%]	mortality [17] [%]	mortality [18] [%]	mortality [19] [%]	other results
CC(C)[C@H]1CC[C@H](C)CC1=O (relative stereo) [REL-MENTHONE]	56.7	56.7	53.3	13.3	90	100	100	100	83.3	100	100	93.3	70	26.7	36.7	33.3	33.3	66.7	56.7	53.3	mortality [20]: 26.7%; mortality [21]: 50%; mortality [22]: 40%; mortality [23]: 6.7%; mortality [24]: 23.3%; mortality [25]: 50%; mortality [26]: 43.3%; mortality [27]: 30%; mortality [28]: 23.3%; mortality [29]: 56.7%; mortality [30]: 53.3%; mortality [31]: 50%; mortality [32]: 30%
CC12CCC(CC1)C(C)(C)O2 [EUCALYPTOL]	100	100	100	43.3	90	100	100	100	83.3	100	100	100	100	83.3	100	100	100	100	100	100	mortality [20]: 46.7%; mortality [21]: 100%; mortality [22]: 83.3%; mortality [23]: 26.7%; mortality [24]: 66.7%; mortality [25]: 86.7%; mortality [26]: 80%; mortality [27]: 73.3%; mortality [28]: 56.7%; mortality [29]: 76.7%; mortality [30]: 63.3%; mortality [31]: 50%; mortality [32]: 40%
C=C(C)[C@H]1CC=C(C)CC1 [D-LIMONENE]	90	80	80	53.3	90	100	100	100	90	100	100	100	83.3	76.7	93.3	90	86.7	90	80	76.7	mortality [20]: 43.3%; mortality [21]: 90%; mortality [22]: 83.3%; mortality [23]: 23.3%; mortality [24]: 50%; mortality [25]: 70%; mortality [26]: 63.3%; mortality [27]: 60%; mortality [28]: 33.3%; mortality [29]: 53.3%; mortality [30]: 50%; mortality [31]: 46.7%; mortality [32]: 0%
